Measured values taken from US20050119288A1, “Dosing schedule for a novel anticancer agent” (Pfizer Inc, priority 2003, published 2005).
Like-named read-outs stand apart in the source and are kept apart here.

What was measured:
[1] = Pharmacokinetics in SK-OV-3 tumor-bearing mice; format: in vivo; conditions: for Cave0-4 h / AUC(0-t) / Cmax: PO; for AUC(0-t) / Cmax: female, athymic, mouse, blood, po; for AUC(0-t): read-out: AUC0-4 h; for Cmax: read-out: Cmax 0.5 h
Description: (§1) SK-OV-3 cells obtained from ATCC (Rockville, Md.) were grown in McCoy's medium containing 10% fetal bovine serum and pen/strep. Exponentially growing cells were harvested and inoculated SC (5 million cells/animal) into female athymic mice. The tumor measurements and body weight changes were obtained on days 1, 3, 6, 10, 13 and 18. Tumor volume was calculated by the following formula: Tumor volume (mm^3)═(W×W)/2×L (L=length & W=width). Blood samples (˜50 μl) were isolated at 0.5, 1, 2, 4 and 8 hrs after dosing on day 18 for PK-analysis. Tumors were isolated at 0.5 hr post-dosing on day 18 for PD-analysis by ELISA. The p-erbB2 reduction, tumor volume and body weight changes in control and test compound treated animals are shown below in Table 2.

[2] = Body weight and tolerability, SK-OV-3 study; format: in vivo, mice; conditions: PO
Description: as §1

MDA-MB-453 tumors = assay: MDA-MB-453 xenograft tumor growth in athymic mice; format: in vivo, human; conditions: PO; for % Growth inhibition: 29 days
Description: The in vivo anti-tumor activity of the compounds for use in the methods of the present invention can be determined by the amount of inhibition of tumor growth by a test compound relative to a control. The tumor growth inhibitory effects of various compounds can be measured according to the method of Corbett T. H., et al., “Tumor Induction Relationships in Development of Transplantable Cancers of the Colon in Mice for Chemotherapy Assays, with a Note on Carcinogen Structure”, Cancer Res., 35, 2434-2439 (1975) and Corbett T. H., et al., “A Mouse Colon-tumor Model for Experimental Therapy”, Cancer Chemother. Rep. (Part 2)”, 5, 169-186 (1975), with slight modifications. Tumors can be induced in the left flank of mice by subcutaneous (sc) injection of 1-5 million log phase cultured tumor cells suspended in 0.1 ml RPMI 1640 medium. After sufficient time has elapsed for the tumors to become palpable (˜100-150 mm^3 in size/5-6 mm in diameter) the test animals (athymic female mice) are treated with test compound (formulated at a concentration of 10 to 15 mg/ml in 5 Gelucire or 0.5% methyl cellulose) by the intravenous (iv) or oral (po) route of administration once or twice daily for 7 to 29 consecutive days. In order to determine an anti-tumor effect, the tumor is measured in millimeters with a Vernier caliper across two diameters and the tumor size (mm^3) is calculated using the formula: Tumor size (mm^3)=(W×W)/2×L (L=length and W=width), according to the methods of Geran, R. I., et al. “Protocols for Screening Chemical Agents and Natural Products Against Animal Tumors and Other Biological Systems”, Third Edition, Cancer Chemother. Rep., 3, 1-104 (1972). Results are expressed as percent inhibition, according to the formula: Inhibition Growth (%)=[100-{(% Growth of Treated/% Growth of Control)×100}]. The flank site of tumor implantation provides reproducible dose/response effects for a variety of chemotherapeutic agents, and the method of measurement (tumor diameter) is a reliable method for assessing tumor growth rates.
Study Design: Exponentially growing MDA-MB-453 cells (DMEM/F12 with 10% FBS, and pen/strep [Gibco]) were harvested and inoculated SC (5 million cells/animal) into female athymic mice. MDA-MB-453 tumor bearing mice (˜100 mm^3 in size, N=64) were randomized in 8 groups consisting 8 animals each. Animals were treated with vehicle (PO, QD or BID) or the test compound (PO, QD or BID) as described in Table 6. The tumor measurements and body weight changes were obtained on days 1, 3, 7, 10, 14, 17, 21, 24, and 29. Tumor volume was calculated by the following formula: Tumor volume (mm^3)═(W×W)/2×L (L=length & W=width). Blood samples (˜50 μl) were isolated at 0.5, 1, 2, 4 and 8 hrs after dosing on day 29 for PK-analysis. Tumors were isolated at 0.5 hr post-dosing on day 29 for PD-analysis by ELISA.
Statistical Analysis: ANOVA was conducted on the percentage growth data and planned comparisons were conducted between like-doses. The data were log transformed for the analysis due to the distribution of the values. The Dunnett-Tamahane procedure was used for the multiple comparison analysis.

[3] = Plasma concentration in FRE/erbB2 tumor-bearing mice
Description: The test compound was either administered using tail vein infusion or orally.
A 1.15 mg/ml solution of the test compound was infused IV at 550 μl/hr for 2 minute ramped infusions followed by 50 μl/hr for 15 min or 4 hour daily infusions. (Projection was based on Cl of the test compound). Athymic female mice bearing FRE/erbB2 tumors (˜100 mm^3 in size) were treated with vehicle, the test compound orally or the test compound intravenously. […] The study was carried out for 7 days. Plasma and tumor samples were isolated for PK and PD analysis at the termination of study.

With `COCC(=O)NC/C=C/c1ccc2ncnc(Nc3ccc(Oc4ccc(C)nc4)c(C)c3)c2c1` [Test Compound, E-2-Methoxy-N-(3-{4-(3-methyl-4-(6-methyl-pyridin-3-yloxy)-phenylamino)-quinazolin-6-yl}-allyl)-acetamide] the Cave0-4 h ([1]; 25 mg/kg, BID, day 18) was 390 ng/mL, the “AUC0-4 h and Cave0-4 h, QD group compared to BID dosed group” value ([1]; 50 mg/kg QD vs 25 mg/kg BID, day 18) was “approximately 2 fold” and the Cave0-4 h ([1]; 50 mg/kg, BID, day 18) was 1050 ng/mL. The Cave0-4 h ([1]; 50 mg/kg, QD, day 18) was 853 ng/mL, the Cave0-4 h ([1]; 100 mg/kg, BID, day 18) was 2330 ng/mL and the Cave0-4 h ([1]; 100 mg/kg, QD, day 18) was 4080 ng/mL. The Oral absorption ([1]; 200 mg/kg QD dosing) was “non-linear”, the Cave0-4 h ([1]; 200 mg/kg, QD, day 18) was 3780 ng/mL and the “Cmax, 50 mg/kg QD compared to 25 mg/kg BID” value ([1]; day 18) was “approximately 2 fold”. The AUC(0-t) ([1]; 25 mg/kg, BID, day 18) was 1560 ng·h/mL, the Cmax ([1]; 25 mg/kg, BID, day 18) was 1780 ng/mL and the AUC(0-t) ([1]; 50 mg/kg, BID, day 18) was 4180 ng·h/mL. It also gave a Cmax ([1]; 50 mg/kg, BID, day 18) of 3880 ng/mL, an AUC(0-t) ([1]; 50 mg/kg, QD, day 18) of 3410 ng·h/mL and a Cmax ([1]; 50 mg/kg, QD, day 18) of 3640 ng/mL. It also gave an AUC(0-t) ([1]; 100 mg/kg, BID, day 18) of 9330 ng·h/mL, a Cmax ([1]; 100 mg/kg, BID, day 18) of 8060 ng/mL and an AUC(0-t) ([1]; 100 mg/kg, QD, day 18) of 16300 ng·h/mL. The Cmax ([1]; 100 mg/kg, QD, day 18) was 12100 ng/mL, the AUC(0-t) ([1]; 200 mg/kg, QD, day 18) was 15100 ng·h/mL and the Cmax ([1]; 200 mg/kg, QD, day 18) was 10200 ng/mL. The “average body weight Day 1” value ([2]; BID 25 mg/kg) was 24 g, the “average body weight Day 18” value ([2]; BID 25 mg/kg) was 26 g and the “average body weight Day 1” value ([2]; BID 50 mg/kg) was 24 g. The “average body weight Day 18” value ([2]; BID 50 mg/kg) was 25 g, the “average body weight Day 1” value ([2]; BID 100 mg/kg) was 23 g and the “average body weight Day 18” value ([2]; BID 100 mg/kg) was 23 g. The “average body weight Day 1” value ([2]; QD 50 mg/kg) was 23 g, the “average body weight Day 18” value ([2]; QD 50 mg/kg) was 24 g and the “average body weight Day 1” value ([2]; QD 100 mg/kg) was 23 g. The “average body weight Day 18” value ([2]; QD 100 mg/kg) was 25 g, the “average body weight Day 1” value ([2]; QD 200 mg/kg) was 23 g and the “average body weight Day 18” value ([2]; QD 200 mg/kg) was 24 g. The “tolerability, body weight loss or animal mortality” value ([2]; QD or BID, 18 days) was “well tolerated and there was no body weight loss or animal mortality”, the “% Growth inhibition” value (MDA-MB-453 tumors; BID 25 mg/kg (Total Daily Dose = 50 mg/kg)) was 19% and the “Tumor volume Day 1 (Mean ± SE)” value (MDA-MB-453 tumors; BID 25 mg/kg) was 107 ± 4 mm^3. For the same compound, the “Tumor volume Day 29 (Mean ± SE)” value (MDA-MB-453 tumors; BID 25 mg/kg) was 252 ± 24 mm^3, the “% Growth inhibition” value (MDA-MB-453 tumors; BID 50 mg/kg (Total Daily Dose = 100 mg/kg)) was 66% and the “Tumor volume Day 1 (Mean ± SE)” value (MDA-MB-453 tumors; BID 50 mg/kg) was 107 ± 4 mm^3. For the same compound, the “Tumor volume Day 29 (Mean ± SE)” value (MDA-MB-453 tumors; BID 50 mg/kg) was 164 ± 13 mm^3, the “% Growth inhibition” value (MDA-MB-453 tumors; BID 100 mg/kg (Total Daily Dose = 200 mg/kg)) was 83% and the “Tumor volume Day 1 (Mean ± SE)” value (MDA-MB-453 tumors; BID 100 mg/kg) was 107 ± 4 mm^3. The “Tumor volume Day 29 (Mean ± SE)” value (MDA-MB-453 tumors; BID 100 mg/kg) was 137 ± 6 mm^3, the “% Growth inhibition” value (MDA-MB-453 tumors; QD 50 mg/kg) was 38% and the “Tumor volume Day 1 (Mean ± SE)” value (MDA-MB-453 tumors; QD 50 mg/kg) was 107 ± 4 mm^3. The “Tumor volume Day 29 (Mean ± SE)” value (MDA-MB-453 tumors; QD 50 mg/kg) was 213 ± 19 mm^3, the “% Growth inhibition” value (MDA-MB-453 tumors; QD 100 mg/kg) was 63% and the “Tumor volume Day 1 (Mean ± SE)” value (MDA-MB-453 tumors; QD 100 mg/kg) was 107 ± 4 mm^3. The “Tumor volume Day 29 (Mean ± SE)” value (MDA-MB-453 tumors; QD 100 mg/kg) was 175 ± 14 mm^3, the “% Growth inhibition” value (MDA-MB-453 tumors; QD 200 mg/kg) was 100% and the “Tumor volume Day 1 (Mean ± SE)” value (MDA-MB-453 tumors; QD 200 mg/kg) was 107 ± 4 mm^3. The “Tumor volume Day 29 (Mean ± SE)” value (MDA-MB-453 tumors; QD 200 mg/kg) was 108 ± 9 mm^3, the “Plasma Concentration (Mean ± SE)” value ([3]; 10.7 mg/kg IV, 4 hr/day) was 473 ± 141 ng/mL and the “Plasma Concentration (Mean ± SE)” value ([3]; 10.7 mg/kg IV, 4 hr/day, listed as test compound) was about 500 ng/mL. The “Plasma Concentration (Mean ± SE)” value ([3]; 25 mg/kg PO, QD, 0.5 h post-dosing on day 7) was 1460 ± 170 ng/mL.
